# According to PubChem BioAssay (NCI):
#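 Tested at 5 concentrations; 48 h exposure; 96-well plates; endpoints linearly interpolated, else capped at highest concentration. Here, GI50 denotes the concentration required for 50% inhibition of growth. TGI: total growth inhibition.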
# How the values were obtained:
# Test in all cases: growth of human tumour cells (NCI), 48 h
# U251 CNS = system: U251 CNS
# TK-10 renal = system: TK-10 renal
# A549 NSCLC = system: A549 NSCLC
# CAKI-1 renal = system: CAKI-1 renal
# HCC-2998 colon = system: HCC-2998 colon
# OVCAR-4 ovarian = system: OVCAR-4 ovarian
# DU-145 prostate = system: DU-145 prostate
# SK-OV-3 ovarian = system: SK-OV-3 ovarian
# SF-295 CNS = system: SF-295 CNS
# EKVX NSCLC = system: EKVX NSCLC
# SK-MEL-2 melanoma = system: SK-MEL-2 melanoma
# K-562 leukemia = system: K-562 leukemia
# COLO 205 colon = system: COLO 205 colon
# NCI/ADR-RES ovarian = system: NCI/ADR-RES ovarian
# SF-539 CNS = system: SF-539 CNS
# RXF 393 renal = system: RXF 393 renal
# MDA-MB-468 breast = system: MDA-MB-468 breast
# UACC-62 melanoma = system: UACC-62 melanoma
# HT29 colon = system: HT29 colon
# RPMI-8226 leukemia = system: RPMI-8226 leukemia
# OVCAR-8 ovarian = system: OVCAR-8 ovarian
# SK-MEL-28 melanoma = system: SK-MEL-28 melanoma
# HOP-92 NSCLC = system: HOP-92 NSCLC
# SF-268 CNS = system: SF-268 CNS
# IGROV1 ovarian = system: IGROV1 ovarian
# SNB-75 CNS = system: SNB-75 CNS
# HOP-62 NSCLC = system: HOP-62 NSCLC
# HS 578T breast = system: HS 578T breast
# HL-60(TB) leukemia = system: HL-60(TB) leukemia
# T-47D breast = system: T-47D breast
# M14 melanoma = system: M14 melanoma
# SR leukemia = system: SR leukemia
# KM12 colon = system: KM12 colon
# MALME-3M melanoma = system: MALME-3M melanoma
# OVCAR-5 ovarian = system: OVCAR-5 ovarian
# MDA-MB-435 = system: MDA-MB-435
# SK-MEL-5 melanoma = system: SK-MEL-5 melanoma
# MCF7 breast = system: MCF7 breast
# SW-620 colon = system: SW-620 colon
# 786-0 renal = system: 786-0 renal
# NCI-H23 lung = system: NCI-H23 lung
# LOX IMVI melanoma = system: LOX IMVI melanoma
# NCI-H460 lung = system: NCI-H460 lung
# MOLT-4 leukemia = system: MOLT-4 leukemia
# CCRF-CEM leukemia = system: CCRF-CEM leukemia
# NCI-H522 lung = system: NCI-H522 lung
# ACHN renal = system: ACHN renal
# HCT-15 colon = system: HCT-15 colon
# PC-3 prostate = system: PC-3 prostate
# BT-549 breast = system: BT-549 breast
# A498 renal = system: A498 renal
# UACC-257 melanoma = system: UACC-257 melanoma
# NCI-H226 lung = system: NCI-H226 lung
# UO-31 renal = system: UO-31 renal
# MDA-MB-231 breast = system: MDA-MB-231 breast
# SN12C renal = system: SN12C renal
# OVCAR-3 ovarian = system: OVCAR-3 ovarian
# SNB-19 CNS = system: SNB-19 CNS
smiles,measurement,setting,value
CN1CCN(c2ccc(Nc3nc(NCCCNC(=O)c4ccc(F)cc4)c4sccc4n3)cc2)CC1,GI50,U251 CNS,3.01 µM
same,TGI,U251 CNS,10.5 µM
same,GI50,TK-10 renal,5.55 µM
same,TGI,TK-10 renal,17.7 µM
same,GI50,A549 NSCLC,4.77 µM
same,TGI,A549 NSCLC,22.2 µM
same,GI50,CAKI-1 renal,3.43 µM
same,TGI,CAKI-1 renal,15.2 µM
same,GI50,HCC-2998 colon,3.38 µM
same,TGI,HCC-2998 colon,11.9 µM
same,GI50,OVCAR-4 ovarian,5.84 µM
same,TGI,OVCAR-4 ovarian,29.5 µM
same,GI50,DU-145 prostate,7.65 µM
same,TGI,DU-145 prostate,21 µM
same,GI50,SK-OV-3 ovarian,16.5 µM
same,TGI,SK-OV-3 ovarian,34.1 µM
same,GI50,SF-295 CNS,1.83 µM
same,TGI,SF-295 CNS,4.2 µM
same,GI50,EKVX NSCLC,12.4 µM
same,TGI,EKVX NSCLC,25.5 µM
same,GI50,SK-MEL-2 melanoma,14.5 µM
same,TGI,SK-MEL-2 melanoma,28.3 µM
same,GI50,K-562 leukemia,1.41 µM
same,TGI,K-562 leukemia,4.72 µM
same,GI50,COLO 205 colon,5.29 µM
same,TGI,COLO 205 colon,20.5 µM
same,GI50,NCI/ADR-RES ovarian,4.18 µM
same,TGI,NCI/ADR-RES ovarian,24.9 µM
same,GI50,SF-539 CNS,1.69 µM
same,TGI,SF-539 CNS,3.16 µM
same,GI50,RXF 393 renal,1.45 µM
same,TGI,RXF 393 renal,3.25 µM
same,GI50,MDA-MB-468 breast,1.46 µM
same,TGI,MDA-MB-468 breast,4.82 µM
same,GI50,UACC-62 melanoma,2.04 µM
same,TGI,UACC-62 melanoma,4.58 µM
same,GI50,HT29 colon,2.46 µM
same,TGI,HT29 colon,7.78 µM
same,GI50,RPMI-8226 leukemia,1.79 µM
same,TGI,RPMI-8226 leukemia,4.25 µM
same,GI50,OVCAR-8 ovarian,4.14 µM
same,TGI,OVCAR-8 ovarian,51.2 µM
same,GI50,SK-MEL-28 melanoma,1.77 µM
same,TGI,SK-MEL-28 melanoma,3.45 µM
same,GI50,HOP-92 NSCLC,7.45 µM
same,TGI,HOP-92 NSCLC,28.2 µM
same,GI50,SF-268 CNS,4.38 µM
same,TGI,SF-268 CNS,22.4 µM
same,GI50,IGROV1 ovarian,5.98 µM
same,TGI,IGROV1 ovarian,19.9 µM
same,GI50,SNB-75 CNS,7.14 µM
same,TGI,SNB-75 CNS,21.5 µM
same,GI50,HOP-62 NSCLC,16.4 µM
same,TGI,HOP-62 NSCLC,35.7 µM
same,GI50,HS 578T breast,6.09 µM
same,TGI,HS 578T breast,32.2 µM
same,GI50,HL-60(TB) leukemia,1.52 µM
same,TGI,HL-60(TB) leukemia,3.39 µM
same,GI50,T-47D breast,2.64 µM
same,TGI,T-47D breast,13.7 µM
same,GI50,M14 melanoma,1.83 µM
same,TGI,M14 melanoma,3.59 µM
same,GI50,SR leukemia,1.71 µM
same,TGI,SR leukemia,4.6 µM
same,GI50,KM12 colon,4.32 µM
same,TGI,KM12 colon,18.2 µM
same,GI50,MALME-3M melanoma,1.79 µM
same,TGI,MALME-3M melanoma,3.2 µM
same,GI50,OVCAR-5 ovarian,11.7 µM
same,TGI,OVCAR-5 ovarian,26 µM
same,GI50,MDA-MB-435,4.3 µM
same,TGI,MDA-MB-435,16.1 µM
same,GI50,SK-MEL-5 melanoma,2.08 µM
same,TGI,SK-MEL-5 melanoma,4.95 µM
same,GI50,MCF7 breast,2.67 µM
same,TGI,MCF7 breast,11.1 µM
same,GI50,SW-620 colon,3.04 µM
same,TGI,SW-620 colon,10.2 µM
same,GI50,786-0 renal,1.91 µM
same,TGI,786-0 renal,5.45 µM
same,GI50,NCI-H23 lung,10.3 µM
same,TGI,NCI-H23 lung,24.9 µM
same,GI50,LOX IMVI melanoma,1.67 µM
same,TGI,LOX IMVI melanoma,3.31 µM
same,GI50,NCI-H460 lung,3.25 µM
same,TGI,NCI-H460 lung,12.8 µM
same,GI50,MOLT-4 leukemia,1.67 µM
same,TGI,MOLT-4 leukemia,5.38 µM
same,GI50,CCRF-CEM leukemia,1.92 µM
same,TGI,CCRF-CEM leukemia,4.99 µM
same,GI50,NCI-H522 lung,1.77 µM
same,TGI,NCI-H522 lung,3.92 µM
same,GI50,ACHN renal,3.04 µM
same,TGI,ACHN renal,13.2 µM
same,GI50,HCT-15 colon,2.31 µM
same,TGI,HCT-15 colon,8.13 µM
same,GI50,PC-3 prostate,3.19 µM
same,TGI,PC-3 prostate,16.6 µM
same,GI50,BT-549 breast,4.39 µM
same,TGI,BT-549 breast,16.7 µM
same,GI50,A498 renal,18.8 µM
same,TGI,A498 renal,32.8 µM
same,GI50,UACC-257 melanoma,2.14 µM
same,TGI,UACC-257 melanoma,4.94 µM
same,GI50,NCI-H226 lung,11.3 µM
same,TGI,NCI-H226 lung,23.9 µM
same,GI50,UO-31 renal,11.7 µM
same,TGI,UO-31 renal,23.9 µM
same,GI50,MDA-MB-231 breast,4.15 µM
same,TGI,MDA-MB-231 breast,14.5 µM
same,GI50,SN12C renal,10.5 µM
same,TGI,SN12C renal,23.3 µM
same,GI50,OVCAR-3 ovarian,3.52 µM
same,TGI,OVCAR-3 ovarian,13.3 µM
same,GI50,SNB-19 CNS,7.97 µM
same,TGI,SNB-19 CNS,20.6 µM
